From patent US6897316B2, “Substituted 2-phenyl-4-quinolone-3-carboxylic acid compounds and their use as antitumor agents” (China Medical University, priority 2003, dated 2005) come the findings set out here.

The subject of data set [1] is Renal cancer (CAKI) cell line. Nature of the data set: Activity against HTCL replication, CAKI. The following applies: mean ED50. The data set is classed as cell-based, human. On the procedure: (§1) Compounds were assayed for in vitro cytotoxicity in a panel of human tumor cell lines at the School of Pharmacy, University of North Carolina at Chapel Hill, according to procedures described previously [Lee, K. H., Lin, Y. M., Wu, T. S., Zhang, D. C., Yamagishi, T., Hayashi, T., Hall, I. H., Chang, J. J., Wu, R. Y., Yang, T. H. The cytotoxic principles of Prunella vulgaris, Psychotria serpens, and Hyptis capitata: Ursolic acid and related derivatives. Planta Med. 1988, 54, 308-11; Boyd, M. R. Status of the National Cancer Institute preclinical antitumor drug discovery screen: implications for selection of new agents for clinical trial. Devita, V. T., Jr. Hellman, S., Rosenberg, S. A., Eds, J. B. Cancer: Principles and Practice of Oncology Update, 1989, 3: pp1-12, Lippincoft: Philadephia; Monks, A., Scudiero, D., Skehan, P., Shoemaker, R., Paull, K., Vistica, D., Hose, C., Langley, J., Cronise, P., Vaigro-Wolff, A., Gray-Goodrich, M., Campbell, H., Mayo, J., Boyd, M. Feasibility of a high-flux anticancer drug screen using a diverse panel of cultured human tumor cell lines. J. Natl. Cancer Inst. 1991, 83, 757-66.] […]

Another data set concerns bone (HOS) cell line. The data set is described as follows: Activity against HTCL replication, HOS. The class given is cell-based, human. Conditions: mean ED50. On the procedure:
as §1

For data set [2], the system named is epidermoid carcinoma of the nasopharynx (KB) cell line. Nature of the data set: Activity against HTCL replication, KB. The data set is classed as cell-based, human. Conditions: mean ED50. On the procedure:
as §1

Data set [3] deals with Vincristine-resistant epidermoid carcinoma of the nasopharynx (KB-VIN) cell line. Nature of the data set: Activity against HTCL replication, KB-VIN. The data set is classed as cell-based, human. The following applies: mean ED50. On the procedure: as §1
For data set [4], the system named is melanoma (SK-MEL-2) cell line. The data set is described as follows: Activity against HTCL replication, SK-MEL-2. The data set is classed as cell-based, human. Conditions: mean ED50. On the procedure: as §1
Data set [5] deals with ileocecal carcinoma (HCT-8) cell line. The data set is described as follows: Activity against HTCL replication, HCT-8. The following applies: mean ED50. The data set is classed as cell-based, human. On the procedure:
as §1

Data set [6] has as its system human ovarian cancer (IA9) cell line. Nature of the data set: Activity against HTCL replication, IA9. The class given is cell-based. On the procedure: Compounds were assayed for in vitro cytotoxicity in a panel of human tumor cell lines at the School of Pharmacy, University of North Carolina at Chapel Hill, according to procedures described previously [Lee, K. H., Lin, Y. M., Wu, T. S., Zhang, D. C., Yamagishi, T., Hayashi, T., Hall, I. H., Chang, J. J., Wu, R. Y., Yang, T. H. The cytotoxic principles of Prunella vulgaris, Psychotria serpens, and Hyptis capitata: Ursolic acid and related derivatives. Planta Med. 1988, 54, 308-11; Boyd, M. R. Status of the National Cancer Institute preclinical antitumor drug discovery screen: implications for selection of new agents for clinical trial. Devita, V. T., Jr. Hellman, S., Rosenberg, S. A., Eds, J. B. Cancer: Principles and Practice of Oncology Update, 1989, 3: pp1-12, Lippincoft: Philadephia; Monks, A., Scudiero, D., Skehan, P., Shoemaker, R., Paull, K., Vistica, D., Hose, C., Langley, J., Cronise, P., Vaigro-Wolff, A., Gray-Goodrich, M., Campbell, H., Mayo, J., Boyd, M. Feasibility of a high-flux anticancer drug screen using a diverse panel of cultured human tumor cell lines. J. Natl. Cancer Inst. 1991, 83, 757-66.] The cell lines included human ovarian cancer (1A9), ileocecal carcinoma (HCT-8), lung carcinoma (A-549), glioblastoma (U-87-MG), bone (HOS), epidermoid carcinoma of the […] (KB), P-gp-expressing epidermoid carcinoma of the nasopharynx (KB-VIN), and melanoma (SKMEL-2) cell line. The cytotoxic effects of each compound were obtained as EC50 values, which represent the molar drug concentrations required to cause 50% inhibition.
Antitumor activity of compounds IX-8 and X-8 was further tested on the following 8 cancer cell lines: CAKI, HOS, KB, KB-VIN, SK-MEL-2, U87-MG, HCT-8 and IA9. […] It is worth mentioning that these two compounds were quite active against human ovarian cancer cells (IA9), which were known to have a high level of drug resistant P-glycoprotein. IC50 of compound IX-8 against these cancer cells is only 0.03 μg/mL. Thus, this compound is really worth developing, particular against drug resistant ovarian cancer.

A word on the IC50: it is the concentration that inhibits the measured activity by half. Broadly, the melting point is the temperature of the solid-liquid transition.

Converted amounts (≈) assume the structure as drawn.

For `COc1ccc2[nH]c(-c3cccc(F)c3)c(C(=O)O)c(=O)c2c1` [IX-8, 3′-Fluoro-6-methoxy-2-phenyl-4-quinolone-3-carboxylic acid], the melting point was 268 °C (dec.). The “ED50 CAKI” value in data set [1] came out at 10.0 µg/mL (≈ 31.9 µM). Moreover, the “ED50 HOS” value in the data set on bone (HOS) cell line amounted to 0.14 µg/mL (≈ 0.447 µM). Moreover, the “ED50 KB” value in data set [2] was 0.13 µg/mL (≈ 0.415 µM). Further, the “ED50 KB-VIN” value in data set [3] was determined as 0.13 µg/mL (≈ 0.415 µM). Further, the “ED50 SK-MEL-2” value in data set [4] was determined as 0.16 µg/mL (≈ 0.511 µM). For the same molecule, the “ED50 HCT-8” value in data set [5] turned out to be 0.14 µg/mL (≈ 0.447 µM). Besides, the IC50 in data set [6] (Homo sapiens, IA9, as worded in text, read-out: IC50 against human ovarian cancer cells (IA9)) was 0.03 µg/mL (≈ 0.0958 µM). The “ED50 IA9” value in data set [6] (ovarian cancer IA9, mean ED50) amounted to 0.03 µg/mL (≈ 0.0958 µM).
